The target in data set [1] is T1, Mucosa-associated lymphoid tissue lymphoma translocation protein 1 (Homo sapiens, UniProt Q9UDY8).
T1 sequence (Q9UDY8 whole entry): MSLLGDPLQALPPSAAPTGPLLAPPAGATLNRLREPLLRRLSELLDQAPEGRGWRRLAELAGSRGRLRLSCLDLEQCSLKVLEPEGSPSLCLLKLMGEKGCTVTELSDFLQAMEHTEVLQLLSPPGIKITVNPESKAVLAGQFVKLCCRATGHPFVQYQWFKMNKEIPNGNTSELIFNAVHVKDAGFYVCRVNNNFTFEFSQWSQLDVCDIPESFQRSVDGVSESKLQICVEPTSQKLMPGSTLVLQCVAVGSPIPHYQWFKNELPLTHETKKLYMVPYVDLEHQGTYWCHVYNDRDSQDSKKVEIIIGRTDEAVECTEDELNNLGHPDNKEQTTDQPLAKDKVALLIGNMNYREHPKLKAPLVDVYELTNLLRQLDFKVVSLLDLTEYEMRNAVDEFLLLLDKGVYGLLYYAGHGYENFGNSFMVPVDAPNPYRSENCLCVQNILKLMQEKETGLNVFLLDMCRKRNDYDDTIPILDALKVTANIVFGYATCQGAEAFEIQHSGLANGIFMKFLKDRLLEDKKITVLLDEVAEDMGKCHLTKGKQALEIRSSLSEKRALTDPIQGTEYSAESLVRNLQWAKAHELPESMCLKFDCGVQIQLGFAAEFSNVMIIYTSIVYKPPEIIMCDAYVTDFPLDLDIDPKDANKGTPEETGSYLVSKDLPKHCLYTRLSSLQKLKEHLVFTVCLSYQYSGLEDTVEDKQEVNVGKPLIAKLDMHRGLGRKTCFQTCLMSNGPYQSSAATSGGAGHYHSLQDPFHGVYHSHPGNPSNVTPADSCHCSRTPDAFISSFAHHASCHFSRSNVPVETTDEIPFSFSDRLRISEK
Put plainly: Inhibition of MALT1 (unknown origin).

The target in data set [2] is T2, Mucosa-associated lymphoid tissue lymphoma translocation protein 1 (Homo sapiens) (UniProt Q9UDY8).
T2 sequence (whole entry): T1 sequence (Q9UDY8 whole entry)
The experiment in a line: Inhibition of MALT1 (unknown origin) at 25 uM relative to control.

The target in data set [3] is Nuclear factor NF-kappa-B complex (Homo sapiens, UniProt P19838+Q00653+Q04206). The experiment in a line: Inhibition of NF-kappaB (unknown origin). The data set is classed as protein-complex assay.
Substrate in data set [4]: CN(C)CCNC(=O)c1cc(-c2ccc(Cl)cc2)n(-c2ccc(Cl)cc2)n1
Description: Non-competitive inhibition of MALT1 (unknown origin) assessed as Michaelis-constant at 0.5 uM by Michaelis-Menten analysis (Rvb = 246.9 microM)
The note with it: Homo sapiens; dose 0.5 µM.

Broadly, the IC50 is the concentration that gives 50% inhibition. Lower therefore signals greater potency in that assay. The inhibition is the share of the control response that was lost under treatment. A word on the Km: it is the substrate concentration at which the rate is half of its maximum.

Nuclear factor NF-kappa-B complex, sequence (P19838 1-433 limits assumed): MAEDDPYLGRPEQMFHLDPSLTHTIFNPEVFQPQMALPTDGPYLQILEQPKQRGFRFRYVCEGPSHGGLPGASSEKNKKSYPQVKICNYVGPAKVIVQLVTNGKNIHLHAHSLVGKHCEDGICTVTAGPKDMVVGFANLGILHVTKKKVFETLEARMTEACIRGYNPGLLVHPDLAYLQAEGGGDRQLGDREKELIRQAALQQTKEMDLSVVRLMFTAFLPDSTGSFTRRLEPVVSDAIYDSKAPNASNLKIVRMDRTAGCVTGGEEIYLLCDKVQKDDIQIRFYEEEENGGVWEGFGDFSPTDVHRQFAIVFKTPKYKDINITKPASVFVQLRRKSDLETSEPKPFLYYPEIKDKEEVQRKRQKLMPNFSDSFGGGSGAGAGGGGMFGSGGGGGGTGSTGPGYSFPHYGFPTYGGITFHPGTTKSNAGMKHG
Nuclear factor NF-kappa-B complex, sequence (Q00653 1-454 limits assumed): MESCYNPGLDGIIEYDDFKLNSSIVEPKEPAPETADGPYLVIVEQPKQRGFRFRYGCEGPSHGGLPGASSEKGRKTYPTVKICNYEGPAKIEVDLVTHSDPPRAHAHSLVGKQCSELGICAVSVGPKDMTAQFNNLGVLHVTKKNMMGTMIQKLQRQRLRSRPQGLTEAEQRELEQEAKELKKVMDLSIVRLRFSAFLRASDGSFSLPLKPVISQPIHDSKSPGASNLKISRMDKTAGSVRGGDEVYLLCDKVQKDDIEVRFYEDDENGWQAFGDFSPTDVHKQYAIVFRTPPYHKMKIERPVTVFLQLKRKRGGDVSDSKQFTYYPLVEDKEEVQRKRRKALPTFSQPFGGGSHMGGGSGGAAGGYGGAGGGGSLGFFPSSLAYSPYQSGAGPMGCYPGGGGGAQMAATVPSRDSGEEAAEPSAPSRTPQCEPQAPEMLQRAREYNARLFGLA
Nuclear factor NF-kappa-B complex, sequence (Q04206 whole entry): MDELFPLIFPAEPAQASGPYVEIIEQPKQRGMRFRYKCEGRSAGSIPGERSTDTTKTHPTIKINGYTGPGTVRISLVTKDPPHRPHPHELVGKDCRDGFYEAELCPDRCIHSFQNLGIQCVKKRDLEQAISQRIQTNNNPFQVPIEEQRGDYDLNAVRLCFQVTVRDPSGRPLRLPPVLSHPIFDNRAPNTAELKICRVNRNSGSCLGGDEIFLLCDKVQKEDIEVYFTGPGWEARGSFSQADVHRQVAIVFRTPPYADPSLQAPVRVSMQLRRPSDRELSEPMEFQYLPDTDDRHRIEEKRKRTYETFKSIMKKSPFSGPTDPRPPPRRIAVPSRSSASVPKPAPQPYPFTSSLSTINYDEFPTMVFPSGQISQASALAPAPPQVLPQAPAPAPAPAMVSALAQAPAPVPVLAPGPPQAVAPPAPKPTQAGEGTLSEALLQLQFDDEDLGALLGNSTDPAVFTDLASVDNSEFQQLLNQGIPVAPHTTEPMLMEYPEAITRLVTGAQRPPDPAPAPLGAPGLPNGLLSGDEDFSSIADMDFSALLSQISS

Consider `CN1CCOC[C@H]1CNC(=O)c1cc(-c2ccc(Cl)cc2)n(-c2ccc(Cl)cc2)n1`, for which, in data set [1], inhibition was half-maximal at 2.01 µM (IC50).
`CN1CCC(O)CC1CNC(=O)c1cc(-c2ccc(Cl)cc2)n(-c2ccc(Cl)cc2)n1` (stereo unspecified): 0.993 µM corresponded to half-maximal inhibition in data set [1] (IC50).
The same measure, in the same setting: as for `CN1CCCC(NC(=O)c2cc(-c3ccc(Cl)cc3)n(-c3ccc(Cl)cc3)n2)C1` (stereo unspecified), the figure is 1.7 µM.
In data set [1], `CN(C)C(=O)c1cc(-c2ccc(Cl)cc2)n(-c2ccc(Cl)cc2)n1` registered a half-inhibitory concentration (IC50) of 21.2 µM.
`CNC(=O)c1cc(-c2ccc(Cl)cc2)n(-c2ccccc2)n1` had an inhibition in data set [2] of 59%. It took 19.8 µM to reach half-maximal inhibition in data set [1] (IC50).
As to `O=C(NCCO)c1cc(-c2ccc(Cl)cc2)n(-c2ccc(Cl)cc2)n1`, in data set [1], the IC50 is 6.55 µM.
With `CNC(=O)c1cc(-c2ccc(C(F)(F)F)cc2)n(-c2ccc(Cl)cc2)n1`, in data set [2], the inhibition stood at 47%. In data set [1], this molecule had an IC50 above 25 µM.
The corresponding values for `CNC(=O)c1cc(-c2ccoc2)n(-c2ccc(Cl)cc2)n1` are 16% and above 25 µM.
Taken in the same sequence, the figures for `CNC(=O)c1cc(-c2cccc(Cl)c2)n(-c2ccc(Cl)cc2)n1` were 43% and above 25 µM.
The corresponding values for `CNC(=O)c1cc(-c2ccc(Cl)cc2)n(Cc2ccccc2)n1` are 57% and 16.3 µM.
As to `CNC(=O)c1cc(-c2ccc(Cl)cc2)n(-c2ccccc2Cl)n1`, in data set [2], the inhibition turned out to be 46%. In data set [1], this molecule showed an IC50 above 25 µM.
`CNC(=O)c1cc(-c2ccc(Cl)cc2)n(-c2cccc(Cl)c2)n1` registered an inhibition in data set [2] of 57%.
Molecule `CNC(=O)c1cc(-c2ccsc2)n(-c2ccc(Cl)cc2)n1` came in with an inhibition in data set [2] of 26%. For the same molecule, the IC50 in data set [1] was above 25 µM.
In data set [1], `CNCCNC(=O)c1cc(-c2ccc(Cl)cc2)n(-c2ccc(Cl)cc2)n1` had an IC50 of 0.8 µM.
Still for that read-out and setting: then `CS(=O)(=O)NCCNC(=O)c1cc(-c2ccc(Cl)cc2)n(-c2ccc(Cl)cc2)n1`, with 4.37 µM.
In data set [2], `CNC(=O)c1cc(-c2ccc(CO)cc2)n(-c2ccc(Cl)cc2)n1` returned an inhibition of 19%. This molecule also yielded an IC50 in data set [1] above 25 µM.
The corresponding values for `CNC(=O)c1cc(-c2ccccc2)n(-c2ccc(Cl)cc2)n1` are 61% and 16.8 µM.
Taken in the same sequence, the figures for `CNC(=O)c1cc(-c2ccc(Cl)cc2)n(C)n1` were 7.7% and above 25 µM.
With `CC(=O)NCCNC(=O)c1cc(-c2ccc(Cl)cc2)n(-c2ccc(Cl)cc2)n1`, the IC50 in data set [1] is 3.3 µM.
On the same count and under the same terms, as for `O=C(NCC1COCCN1)c1cc(-c2ccc(Cl)cc2)n(-c2ccc(Cl)cc2)n1` (stereo unspecified), the figure is 0.819 µM.
Molecule `CNC(=O)c1cc(-c2ccco2)n(-c2ccc(Cl)cc2)n1` displayed an inhibition in data set [2] of 20%. The 50% inhibitory concentration (IC50) in data set [1] is above 25 µM.
In data set [1], `NCCNC(=O)c1cc(-c2ccc(Cl)cc2)n(-c2ccc(Cl)cc2)n1` came in with an IC50 of 1.98 µM.
Regarding `CNC(=O)c1cc(-c2ccc(OC)cc2)n(-c2ccc(Cl)cc2)n1`, the inhibition in data set [2] was 80%. This molecule gave an IC50 in data set [1] of 6.55 µM.
As for `CN(C)CCNC(=O)c1cc(-c2ccc(Cl)cc2)n(-c2ccc(Cl)cc2)n1`, the IC50 in data set [3] stood at 5.41 µM; in data set [1], 0.49 µM.
In data set [2], `CNC(=O)c1cc(-c2ccc(Cl)cc2)n(C2CCCCC2)n1` registered an inhibition of 63%.
Consider `O=C(c1cc(-c2ccc(Cl)cc2)n(-c2ccc(Cl)cc2)n1)N1CCCC1`, for which the IC50 in data set [1] is above 25 µM.
On the same count and under the same terms, then `CCN1CCC[C@@H]1CNC(=O)c1cc(-c2ccc(Cl)cc2)n(-c2ccc(Cl)cc2)n1`, with 2.1 µM; and `NC(=O)CCNC(=O)c1cc(-c2ccc(Cl)cc2)n(-c2ccc(Cl)cc2)n1`, with 13.4 µM.
In turn, `O=C(NCC1CCCCC1)c1cc(-c2ccc(Cl)cc2)n(-c2ccc(Cl)cc2)n1` had an IC50 in data set [1] above 25 µM.
Consider `CNC(=O)c1cc(-c2ccc(OC)nc2)n(-c2ccc(Cl)cc2)n1`, for which the inhibition in data set [2] came to 21%. The IC50 in data set [1] was above 25 µM.
Consider `CNC(=O)c1cc(-c2ccc(F)cc2)n(-c2ccc(Cl)cc2)n1`, for which the inhibition in data set [2] is 47%. Further, the IC50 in data set [1] was above 25 µM.
For the molecule `O=C(NCCCO)c1cc(-c2ccc(Cl)cc2)n(-c2ccc(Cl)cc2)n1`, half-maximal inhibition in data set [1] (IC50) was put at 12.4 µM.
As for `CN(C)CCCNC(=O)c1cc(-c2ccc(Cl)cc2)n(-c2ccc(Cl)cc2)n1`, in data set [1], the half-maximal inhibitory concentration (IC50) was 2.63 µM.
On to `CNC(=O)c1cc(-c2ccc(OC(F)(F)F)cc2)n(-c2ccc(Cl)cc2)n1`, for which, in data set [2], the inhibition worked out at 38%. This molecule returned a 50% inhibitory concentration (IC50) in data set [1] above 25 µM.
Consider `O=C(NCCc1ccccc1)c1cc(-c2ccc(Cl)cc2)n(-c2ccc(Cl)cc2)n1`, for which the 50% inhibitory concentration (IC50) in data set [1] is above 25 µM.
In data set [1], `CN(C)C1CCN(C(=O)c2cc(-c3ccc(Cl)cc3)n(-c3ccc(Cl)cc3)n2)C1` (stereo unspecified) came in with an IC50 of 10.6 µM.
`CNC(=O)c1cc(-c2ccc(Cl)cc2)n(-c2ccc(Cl)cc2)n1` showed an inhibition in data set [2] of 72%. The concentration for half-maximal inhibition (IC50) in data set [3] was 9.34 µM; in data set [1] it was 7.01 µM.
Molecule `CN1CCCCC1CNC(=O)c1cc(-c2ccc(Cl)cc2)n(-c2ccc(Cl)cc2)n1` (stereo unspecified) yielded a half-inhibitory concentration (IC50) in data set [1] of 0.521 µM.
As to `CNC(=O)c1cc(-c2ccc(C#N)cc2)n(-c2ccc(Cl)cc2)n1`, the inhibition in data set [2] came to 31%. The molecule also displayed an IC50 in data set [1] above 25 µM.
In data set [1], `CSc1ccc2c(c1)N(CCC1CCCCN1C)c1ccccc1S2` (stereo unspecified) [THIORIDAZINE] yielded a concentration for half-maximal inhibition (IC50) of 3.43 µM.
Molecule `CN(C)CCCCNC(=O)c1cc(-c2ccc(Cl)cc2)n(-c2ccc(Cl)cc2)n1` gave a 50% inhibitory concentration (IC50) in data set [1] of 2.22 µM.
`CNC(=O)c1cc(-c2ccc(S(C)(=O)=O)cc2)n(-c2ccc(Cl)cc2)n1` came in with an inhibition in data set [2] of 5.7%. In data set [1], this molecule had a half-maximal inhibitory concentration (IC50) above 25 µM.
The corresponding values for `CNC(=O)c1cc(-c2ccccc2Cl)n(-c2ccc(Cl)cc2)n1` are 23% and above 25 µM.
`NCCCNC(=O)c1cc(-c2ccc(Cl)cc2)n(-c2ccc(Cl)cc2)n1` had an IC50 in data set [1] of 7.39 µM.

B1: Mucosa-associated lymphoid tissue lymphoma translocation protein 1 (Homo sapiens), Q9UDY8 (protein)
chain: T1 sequence (Q9UDY8 whole entry)
In the case of B1, the Michaelis-Menten constant (Km) in data set [4] stood at 234 µM.

The values above are taken from ChEMBL document CHEMBL4814035, “Structure-activity relationship studies of 3-substituted pyrazoles as novel allosteric inhibitors of MALT1 protease” (Bioorg Med Chem Lett, 2021).
